Assay results published in patent EP2649091B1, “IMMUNE RESTRICTED PEPTIDES WITH INCREASED EFFICACY” (Stichting Het Nederlands Kanker Instituut, priority 2010, dated 2012).
“And” between values parts separate entries of the source, which are not always exact repeats. Equal values may be shown once. Where no end group is shown, it is not given here. BUTALA = not defined here; am‑phg = not defined here; PHG = not defined here; PRG = not defined here

Tests used:
[1] = tested on: […]-specific CD8+ T cells; assay: Mouse vaccination study, […] tetramer analysis of blood; type: in vivo; settings: mice vaccinated with 5 µg peptide with IFA and CpG, booster at day 97; compared with […] vaccinated mice, at all times
Description: (§1) Three mouse vaccination studies were done using three different wild-type epitopes. In all cases, mice were vaccinated with the peptide supplemented with incomplete freunds ajuvant (IFA) and CpG. Analysis was done by analyzing blood samples with tetramers loaded with wild-type peptide in all cases.
(§2) Two groups of three mice were vaccinated with 5 µg of either […] or [am-phg][NVA]AGIGILT[PRG]. At day 97, mice were administred a second dose (booster). At several timepoints blood was taken and tested for […]-specific CD8+ T cells using tetramers loaded with […]. This was done for both groups of mice.

HLA-A0201 = HLA-A0201 (Homo sapiens, UniProt P04439, D140Y/D185E/D98H/E176V/E277Q/G131W/G231S/I119V/I121R/I166T/I218V/L300P/L318F/N151K/N90K/P208A/P217A/Q86G/Q94H/R138H/R169H/T345S); type: binding
[2] = tested on: CD8+ T cells from Influenza A positive donors sorted using tetramers containing HLA A2.1::[…]; type: cell-based
[3] = tested on: CD8+ T cells from Influenza A positive donors sorted using tetramers containing HLA A2.1::[…]; type: cell-based; remark: listed apart in the source
[4] = tested on: CD8+ T cells with SVYDFFVWL (Melanoma, TRP-2, residues 180-188) specific T cell receptor; assay: T cell activation time course assay, IFNγ production by FACS, TRP-2 epitope; type: cell-based; settings: 48H, peptide 50 picomolar
Description: (§3) FACS was employed to obtain results.
Also for this epitope, an IFNγ expression time-course experiment was performed. The two distinguishing time points 24H and 48H were taken along at peptide concentrations of 5·10^3 pM, 50 pM and 0.5 pM.

[5] = tested on: […]-specific CD8+ T cells; assay: Mouse vaccination study, tetramer analysis of blood, […]; type: in vivo; settings: mice vaccinated with 5 µg peptide with IFA and CpG, booster at day 97, several timepoints, versus […] vaccinated mice
Description: as §1, §2

[6] = tested on: HLA-A2::Mart-1(26-35) reactive T cells stimulated by T2 cells; assay: T cell activation time course assay, IFNγ production (FACS), Mart-1 epitope; type: cell-based; settings: for % CD8+ T cells producing IFN-γ 0H / Geometric mean IFN-γ in arbitrary fluorescence units 0H: time point 0H (basal); for % CD8+ T cells producing IFN-γ 2H / Geometric mean IFN-γ in arbitrary fluorescence units 2H: time point 2H; for % CD8+ T cells producing IFN-γ 4H / Geometric mean IFN-γ in arbitrary fluorescence units 4H: time point 4H; for % CD8+ T cells producing IFN-γ 24H / Geometric mean IFN-γ in arbitrary fluorescence units 24H: time point 24H; for % CD8+ T cells producing IFN-γ 24H / Geometric mean IFN-γ in arbitrary fluorescence units 24H / % CD8+ T cells producing IFN-γ 48H / Geometric mean IFN-γ in arbitrary fluorescence units 48H: free peptide washed away; for % CD8+ T cells producing IFN-γ 48H / Geometric mean IFN-γ in arbitrary fluorescence units 48H: time point 48H
[7] = tested on: LLFGLALIEV-specific CD8+ T cells; assay: Mouse vaccination study, tetramer analysis of blood, LLFGLALIEV; type: in vivo; settings: mice vaccinated with 100 µg peptide with IFA and CpG, all times after day one, versus LLFGLALIEV vaccinated mice
Text: as §1
(§4) This was done for both groups of mice.

[8] = tested on: T cell line specific for LLFGLALIEV; assay: T cell activation, FACS based interferon-gamma production assay, Mage-C2 LLFGLALIEV
Text: as §3
T cell activation was quantified using the FACS based interferon-gamma production assay as materials and methods section. Table 10 HLA binding and T cell activation of modified Melanoma-associated protein C2 (pp-qq) epitopes used in vaccination studies.

[9] = tested on: LLFGLALIEV-specific CD8+ T cells; assay: Mouse vaccination study, LLFGLALIEV tetramer analysis of blood; type: in vivo; settings: mice vaccinated with 100 µg peptide with IFA and CpG; compared with LLFGLALIEV vaccinated mice, at all times after day one
Text: as §1, §4

Substance: [am-phg][NVA]AGIGILT[PRG] ({am‑phg-NVA}-AGIGILT-{PRG}; reading uncertain; also: printed as [am-phg][NVA]AGIGILT[PRG])
- […]-specific CD8+ T cells in blood [1]: specific T cell numbers were higher

Substance: [PHG][BUTALA]LGFVFTL ({PHG-BUTALA}-LGFVFTL; reading uncertain)
- % inhibition at T=4H and T=24H FP 24h (HLA-A0201): 75%
- % Positive TCR recognition % TCR [2]: 3.16%
- Geometric mean IFN in arbitrary fluorescence units Geo TCR [2]: 464 arbitrary fluorescence units
- % CD8+ T cells producing IFN-γ % IFN [3]: 2.5%
- Geometric mean IFN-γ in arbitrary fluorescence units Geo IFN [3]: 249 arbitrary fluorescence units

Substance: [am-phg][CpALA]LGFVFTL
- % inhibition at T=4H and T=24H FP 24h (HLA-A0201): 91%
- IC50 Ratio (HLA-A0201): 2
- % Positive TCR recognition % TCR [2]: 3.17%
- Geometric mean IFN in arbitrary fluorescence units Geo TCR [2]: 150 arbitrary fluorescence units
- % CD8+ T cells producing IFN-γ % IFN [3]: 2.2%
- Geometric mean IFN-γ in arbitrary fluorescence units Geo IFN [3]: 259 arbitrary fluorescence units

Substance: [am-phg][BUTALA]LGFV[4-FPHE]TL
- % inhibition at T=4H and T=24H FP 4h (HLA-A0201): 83%
- % inhibition at T=4H and T=24H FP 24h (HLA-A0201): 84%
- IC50 Ratio (HLA-A0201): 3
- % Positive TCR recognition % TCR [2]: 3.20%
- Geometric mean IFN in arbitrary fluorescence units Geo TCR [2]: 217 arbitrary fluorescence units
- % CD8+ T cells producing IFN-γ % IFN [3]: 2.6%
- Geometric mean IFN-γ in arbitrary fluorescence units Geo IFN [3]: 266 arbitrary fluorescence units

Substance: [CSME][2-AOC]YDFFVWL
- % CD8+ T cells producing IFN-γ [4]: significantly above background level

Substance: [am-phg][NVA]AGIGILT[PRG]
- % inhibition at T=4H and T=24H FP 4h (HLA-A0201): 67%
- % inhibition at T=4H and T=24H FP 24h (HLA-A0201): 64%
- IC50 Ratio (HLA-A0201): 8.3 and 8
- […]-specific CD8+ T cells (specific T cell numbers) [5]: higher
- % CD8+ T cells producing IFN-γ 0H ([6]; peptide 0.5 pM): 0%
- Geometric mean IFN-γ in arbitrary fluorescence units 0H ([6]; peptide 0.5 pM): 141 arbitrary fluorescence units
- % CD8+ T cells producing IFN-γ 2H ([6]; peptide 0.5 pM): 25%
- Geometric mean IFN-γ in arbitrary fluorescence units 2H ([6]; peptide 0.5 pM): 197 arbitrary fluorescence units
- % CD8+ T cells producing IFN-γ 4H ([6]; peptide 0.5 pM): 30%
- Geometric mean IFN-γ in arbitrary fluorescence units 4H ([6]; peptide 0.5 pM): 342 arbitrary fluorescence units
- % CD8+ T cells producing IFN-γ 24H ([6]; peptide 0.5 pM): 16%
- Geometric mean IFN-γ in arbitrary fluorescence units 24H ([6]; peptide 0.5 pM): 165 arbitrary fluorescence units
- % CD8+ T cells producing IFN-γ 48H ([6]; peptide 0.5 pM): 3%
- Geometric mean IFN-γ in arbitrary fluorescence units 48H ([6]; peptide 0.5 pM): 105 arbitrary fluorescence units
- % CD8+ T cells producing IFN-γ 0H ([6]; peptide 50 pM): 0%
- Geometric mean IFN-γ in arbitrary fluorescence units 0H ([6]; peptide 50 pM): 110 arbitrary fluorescence units
- % CD8+ T cells producing IFN-γ 2H ([6]; peptide 50 pM): 28%
- Geometric mean IFN-γ in arbitrary fluorescence units 2H ([6]; peptide 50 pM): 252 arbitrary fluorescence units
- % CD8+ T cells producing IFN-γ 4H ([6]; peptide 50 pM): 32%
- Geometric mean IFN-γ in arbitrary fluorescence units 4H ([6]; peptide 50 pM): 550 arbitrary fluorescence units
- % CD8+ T cells producing IFN-γ 24H ([6]; peptide 50 pM): 28%
- Geometric mean IFN-γ in arbitrary fluorescence units 24H ([6]; peptide 50 pM): 344 arbitrary fluorescence units
- % CD8+ T cells producing IFN-γ 48H ([6]; peptide 50 pM): 18%
- Geometric mean IFN-γ in arbitrary fluorescence units 48H ([6]; peptide 50 pM): 222 arbitrary fluorescence units

Substance: [am-phg][2-AOC]YDFFVWL ({am‑phg-2‑AOC}-YDFFVWL; reading uncertain; also: printed as [am-phg][2-AOC]YDFFVWL)
- % CD8+ T cells producing IFN-γ [4]: significantly above background level

Substance: [PHG][2-AOC]FGLALIEV [listing 1 of 2 here]
- LLFGLALIEV-specific CD8+ T cells (specific T cell numbers) [7]: higher
- % Positive TCR recognition % TCR [8]: 13.7%
- Geometric mean in arbitrary fluorescence units Geo TCR [8]: 108 arbitrary fluorescence units

Substance: [am-phg][CpALA]LGFV[4-FPHE]TL
- % inhibition at T=4H and T=24H FP 4h (HLA-A0201): 96%
- % inhibition at T=4H and T=24H FP 24h (HLA-A0201): 96%
- IC50 Ratio (HLA-A0201): 5
- % Positive TCR recognition % TCR [2]: 3.26%
- Geometric mean IFN in arbitrary fluorescence units Geo TCR [2]: 208 arbitrary fluorescence units
- % CD8+ T cells producing IFN-γ % IFN [3]: 2.8%
- Geometric mean IFN-γ in arbitrary fluorescence units Geo IFN [3]: 243 arbitrary fluorescence units

Substance: [am-phg]ILGFV[4-FPHE]TL
- % inhibition at T=4H and T=24H FP 4h (HLA-A0201): 92%
- % inhibition at T=4H and T=24H FP 24h (HLA-A0201): 93%
- IC50 Ratio (HLA-A0201): 6
- % Positive TCR recognition % TCR [2]: 3.27%
- Geometric mean IFN in arbitrary fluorescence units Geo TCR [2]: 197 arbitrary fluorescence units
- % CD8+ T cells producing IFN-γ % IFN [3]: 2.2%
- Geometric mean IFN-γ in arbitrary fluorescence units Geo IFN [3]: 208 arbitrary fluorescence units

Substance: [PHG][2-AOC]FGLALIEV [listing 2 of 2 here]
- LLFGLALIEV-specific CD8+ T cells in blood [9]: specific T cell numbers were higher

Substance: [am-phg][NVA]YDFFVWL (N-terminal am-phg and NVA)
- % CD8+ T cells producing IFN-γ [4]: significantly above background level

Substance: [PHG]I[NLE]GFVFTL
- % inhibition at T=4H and T=24H FP 4h (HLA-A0201): 86%
- % inhibition at T=4H and T=24H FP 24h (HLA-A0201): 84%
- IC50 Ratio (HLA-A0201): 3
- % Positive TCR recognition % TCR [2]: 3.26%
- Geometric mean IFN in arbitrary fluorescence units Geo TCR [2]: 235 arbitrary fluorescence units
- % CD8+ T cells producing IFN-γ % IFN [3]: 2.9%
- Geometric mean IFN-γ in arbitrary fluorescence units Geo IFN [3]: 270 arbitrary fluorescence units
